Assay results from US20180325947A1, “USE OF MAPK INHIBITORS TO REDUCE LOSS OF HEMATOPOIETIC STEM CELLS DURING EX VIVO CULTURE AND/OR GENETIC MANIPULATION” (Children's Hospital Medical Center, priority 2015, published 2018).
“Also recorded” adds a separate entry of the source.

What was measured:
[1] = tested on: human HSC long term repopulating potential; test: secondary transplant (2T) in NSG mice, long term repopulating potential (LTRP); format: in vivo; settings: for secondary engraftment potential / long term repopulating potential (LTRP): 2T NSG mice, 6 weeks, inhibitor present during ex vivo culture, all time points; for number of 2T mice with human cell engraftment (>0.01% hCD45+ cells in BM): 6 weeks post-secondary transplant
Protocol: FIG. 2. A preclinical model for studying adult human HSC ex vivo manipulation and gene transfer and its effect on LTRP. (Panel A) Freshly isolated or thawed mobilized peripheral blood (MPB) derived CD34+ cells were utilized for the study. Two different protocols were utilized for the study where lentivirus (LV) or γ-Retrovirus (RV) mediated gene transfer was performed at indicated time points. 0 h, 18-24 h, 36-42 h, and 72-96 h indicates the total amount of time where cells were exposed in the ex vivo culture after CD34 isolation before injection into NSG mice. (Panel B) After indicated time in culture and transduction, 1 million CD34+ starting equivalent cells were transplanted per NSG mouse after TBI intravenously (primary transplant=1T). Primary human engraftment and multi-lineage reconstitution was analyzed in mice at indicated time periods after bone marrow harvest at 6 and 12 weeks (wks) from left and right femurs, and after sacrifice at 24 wks, from all bones. A portion of cells were analyzed for FACS and the rest were depleted of mouse CD45+ cells and transplanted one to one, into secondary mice (secondary transplant=2T).
Panel B: Number of 2T mice engrafted (>0.01% hCD45^+ cells in BM) are shown above the middle bar and those non-engrafted below.
Human MPB derived CD34^+ cells either fresh or thawed were cultured and transduced with lentivirus (LV) or retrovirus (RV) expressing GFP for the indicated time points. Cells were harvested and phospho-p38MAPK was detected by flow cytometry. Panel A: Representative histogram plot of p-p38 (number represents mean fluorescence intensity (MFI). Panel B: Fold change of p-p38 MAPK MFI (±SEM) in human CD34^+ 38^− 90^+ 45RA^− 49f^+ cells with or without p38 inhibitor (p38i). Panel C: Human CD45^+ engraftment in NSG mice with (striped bars) or without p38 inhibitor (solid bars) after 24 weeks of primary transplant. Panel D: Human engraftment in NSG mice with or without p38i after 6 weeks of secondary transplant. Engrafted mice (>0.01% CD45^+ cells in the whole bone marrow) over total mice transplanted is shown as percentage. Human CD33^+ myeloid (Panels E and F), CD19^+ B-Lymphoid (Panels G and H) and CD34^+ hematopoietic stem/progenitor cells (HSPCs) (Panels I and J) re-constitution with or without p38i (Panels E, G, and I): GFP^− untransduced; (Panels F, H & J): GFP^+ transduced in primary transplanted mice 24 weeks post transplantation are shown. Data expressed as mean±SEM from 5 independent experiments (n=12-21 mice per group). Statistics: Student's t test, *p<0.05, **p<0.01, ***p<0.001.
Engrafted mice (>0.01% CD45^+ cells in the whole bone marrow) are shown above the middle bar, engrafted/Total mice number is shown on the side. […] Data expressed as mean±SEM from 5 independent experiments (n=7-29 mice per group). […]

[2] = tested on: human CD34+ 38- 90+ HSC enriched population; test: DNA damage response (gamma-H2AX, 53BP1) by immunofluorescence and flow cytometry; format: cell-based
Protocol: Human MPB derived CD34^+ cells were cultured and transduced with lentivirus (LV) or retrovirus (RV) for the indicated time points. Representative Immunofluorescence images of sorted human CD34^+ 38^− 90^+ population treated with or without p38i for 72 hours stained with anti-γH2AX and 53BP1 (Panel A) and quantification of γ-H2AX (Panel B) and 53BP1 (Panel C) MFI/cell. Panel D: Representative histogram plot from flow cytometric analysis of CD34^+ 38^− 90^+ HSC enriched cells stained for γ-H2AX with or without p38 inhibitor (p38i) and quantification of fold change in mean fluorescence intensity (MFI) of γ-H2AX in HSCs (Panel E) and percent GH2AX^+ cells (Panel F) at indicated time period. Percentage shown in histograms are cells positive for γH2AX and the numbers below is mean fluorescent intensity (MFI) (n=5 independent experiments). FACS plot representing HSCs in G0 (Quiescent), G1, and S-G2-M phase of cell cycle with or without p38i (Panel G) and quantification (Panel H) of HSC enriched population at different cell cycle phase at indicated time of ex vivo culture. Percentage of (±SEM) Ki67^− (G0) and Ki67^+ (G1-S-G2-M) HSCs is depicted on the y-axis. (n=4 independent experiments for 24 h LV and n=5 independent experiments for 42 h LV and 72 h RV)). Statistics: paired Student's t test, *p<0.05, **p<0.01, ***p<0.001.
Human MPB derived CD34^+ cells were cultured and transduced as described in FIG. 17. Panel A: Quantification of γ-H2AX^+ CD34^+ 38^− 90^+ cells at 24, 42, & 72 hours. n=5-8 independent experiments/condition). Panel B: Quantification of immunofluorescence analysis for γ-H2AX (left) and 53BP1 (right) MFI per sorted human CD34^+ 38^− 90^+ cell with or without p38i for 42 hours. Panel C: Quantitative plot representing CD34^+ 38^− 90^+ cells in G0-G1, and S-G2-M phase of cell cycle with or without p38i at 42 hours of ex vivo culture and lentivirus (LV) transduction. (n=6 independent experiments/condition). Statistics: paired Student's t test, *p<0.05, **p<0.01, ***p<0.001. Statistics: Student's t test, *p<0.05, **p<0.01, ***p<[…].
Human BM derived CD34 cells were cultured and transduced with lentivirus (LV) for 48 hours. Representative FACS plot representing bone marrow derived HSC enriched CD34^+ 38^− 90^+ population in G0 (Quiescent), G1, and S-G2-M phase of cell cycle with or without p38i (left) and the corresponding representative histogram plot of γH2AX at indicated time and treatment. Percentage shown in histogram refers to cells positive for γH2AX and the numbers below is mean fluorescent intensity (MFI).
p38 inhibition maintains the quiescent phase of HSCs and reduces DNA damage response (DDR) early in culture. Cell cycle entry and gene manipulation induces a DDR in human HSCs that is reduced by inhibiting p38MAPK early in culture. DNA double-strand breaks in Human HSCs were assessed by γ-H2AX staining, a sensitive and specific indicator of DNA double-strand breaks.

With `Cc1ccc(-n2nc(C(C)(C)C)cc2NC(=O)Nc2ccc(OCCN3CCOCC3)c3ccccc23)cc1` [BIRB-796, 1-[5-tert-butyl-2-(4-methylphenyl)pyrazol-3-yl]-3-[4-(2-morpholin-4-ylethoxy)naphthalen-1-yl]urea] as the molecule, how does the “secondary engraftment potential / long term repopulating potential (LTRP)” value [1] read?
The value was “retains”.

And the “secondary engraftment potential / long term repopulating potential (LTRP)” value ([1]; listed as p38i)?
Its value is “retain; also recorded: restores; also recorded: rescues”.

And the “number of 2T mice with human cell engraftment (>0.01% hCD45+ cells in BM)” value [1]?
The value was “significantly increase”.

And the “number of 2T mice with human cell engraftment (>0.01% hCD45+ cells in BM)” value ([1]; listed as Birb796)?
The value was “increases”.

What about the “percentage of γH2AX+ cells” value ([2]; 36-42 h and 72-96 h groups) of the same molecule?
Its value is “significantly reduced”.

And the γH2AX staining ([2]; 24 hours of culture, flow cytometry)?
Its γH2AX staining is “returned to levels seen in unmanipulated HSC”.

What about the “DNA Damage Response (DDR)” value ([2]; MPB derived CD34+ 38- 90+ cells, ex vivo culture and gene transfer) of the same molecule?
Its value is “reduces”.

What about the “DNA Damage Response (DDR)” value ([2]; bone marrow (BM) derived CD34+ 38- 90+ cells, LV 48 hours) of the same molecule?
The value was “reduces”.

And the “γH2AX foci (DNA damage response)” value ([2]; cultured and transduced for 36-42 hours or 72 hours)?
Its value is “rescued”.
